Experimental data as given in patent US5827876A, “Inhibition of bone loss by 3-(4-acrylamidobenzoyl) benzo[b]-thiophenes” (priority 1997, dated 1998).
pEC50, pIC50: −log10 of the molar value. Like-named read-outs stand apart in the source and are kept apart here.

Legend:
[1] = system: Ishikawa cells; experiment: Ishikawa Cell Alkaline Phosphatase Assay; assay type: cell-based; settings: Homo sapiens, reference compounds, estrogenic activity, 48 h treatment, 95% C.I. given in parentheses, read-out: ED50 values (95% C.I.), alkaline phosphatase activity
Procedure: Ishikawa Cell Alkaline Phosphatase Assay
Cell maintenance and treatment:
Ishikawa cells are maintained in DMEM/F12 (50%:50%) containing phenol red+10% fetal bovine serum. The medium also is supplemented with 2 mM Glutamax, 1% Pen/Strep and 1 mM sodium pyruvate. Five days prior to the beginning of an experiment (treatment of cells) the medium is changed to phenol red-free DMEM/F12+10% dextran coated charcoal stripped serum. On the day before treatment, cells are harvested using 0.5% trypsin/EDTA and plated at a density of 5×10^4 cells/well in 96-well tissue culture plates. […] Cells are treated for 48 hours prior to assay. […] Sample size for each compound dose is n=8.
Alkaline Phosphatase assay:
At the end of 48 hours the media is aspirated and cells are washed three times with phosphate buffered saline (PBS). 50 μl of lysis buffer (0.1M Tris-HCl, pH 9.8, 0.2% Triton X-100) is added to each well. Plates are placed at -80° C. for minimally 15 minutes. Plates are rapidly thawed at 37° C. followed by the addition of 150 μl of 0.1M Tris-HCl, pH 9.8, containing 4 mM para-nitrophenylphosphate to each well (final concentration is 3 mM pNPP).
Absorbance and slope calculations are done using the KineticCalc Application program (Bio-Tek Instruments, Inc., Winooski, Vt.). Results are expressed as the mean ±S.D. of the rate of enzyme reaction (slope) averaged over the linear portion of the kinetic reaction curve (optical density readings every 5 minutes for 30 minutes absorbance reading).

[2] = target: T1, estrogen receptor (Homo sapiens, UniProt P03372); experiment: Estrogen Receptor Binding/Competition Assay ([3H]17β-estradiol displacement, CHO cytosol)
T1 sequence (P03372 1-595): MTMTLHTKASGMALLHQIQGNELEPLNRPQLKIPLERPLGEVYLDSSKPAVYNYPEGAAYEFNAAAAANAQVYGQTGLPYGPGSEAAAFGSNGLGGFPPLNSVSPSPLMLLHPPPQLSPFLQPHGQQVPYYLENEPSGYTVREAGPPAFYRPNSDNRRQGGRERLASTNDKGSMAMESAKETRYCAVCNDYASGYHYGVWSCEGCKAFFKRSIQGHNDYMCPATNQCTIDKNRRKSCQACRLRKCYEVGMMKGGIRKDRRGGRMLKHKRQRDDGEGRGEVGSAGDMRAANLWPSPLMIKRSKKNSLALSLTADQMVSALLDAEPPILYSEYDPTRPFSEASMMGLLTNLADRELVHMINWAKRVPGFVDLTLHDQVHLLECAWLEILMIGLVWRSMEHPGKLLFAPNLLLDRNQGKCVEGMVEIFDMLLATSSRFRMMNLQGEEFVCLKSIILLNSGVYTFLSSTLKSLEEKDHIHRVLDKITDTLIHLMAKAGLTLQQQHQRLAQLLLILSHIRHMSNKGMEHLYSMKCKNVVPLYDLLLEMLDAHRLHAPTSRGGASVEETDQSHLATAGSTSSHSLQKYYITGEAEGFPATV

[3] = system: ovariectomized rats; settings: cited from earlier work
[4] = background statement, cited from earlier work
[5] = ovariectomized rats, Black et al. 1994

| SMILES | pEC50 [1] | pIC50 [2] | other results |
| --- | --- | --- | --- |
| C[C@]12CC[C@@H]3c4ccc(O)cc4CC[C@H]3[C@@H]1CC[C@H]2O [17α-estradiol] | 8.85 |  |  |
| C[C@]12CC[C@@H]3c4ccc(O)cc4CC[C@H]3[C@@H]1CC[C@@H]2O [17β-estradiol] | 10.52 |  |  |
| CN(C)C(=O)/C=C/c1ccc(C(=O)c2c(-c3ccc(O)cc3)sc3cc(O)ccc23)cc1 [Example 3, (E)-3-{4-[6-Hydroxy-2-(4-hydroxyphenyl)benzo[b]thiophene-3-carbonyl]phenyl}-N,N-dimethylacrylamide] |  | 6.82 |  |
| CC(C)(C)NC(=O)/C=C/c1ccc(C(=O)c2c(-c3ccc(O)cc3)sc3cc(O)ccc23)cc1 [Example 4, (E)-N-t-Butyl-3-{4-[6-hydroxy-2-(4-hydroxyphenyl)benzo[b]thiophene-3-carbonyl]phenyl}acrylamide] |  | 7.00 |  |
| CCN(CC)C(=O)/C=C/c1ccc(C(=O)c2c(-c3ccc(O)cc3)sc3cc(O)ccc23)cc1 [Example 5, (E)-N,N-Diethyl-3-{4-[6-hydroxy-2-(4-hydroxyphenyl)benzo[b]thiophene-3-carbonyl]phenyl}acrylamide] |  | 7.00 |  |
| O=C(c1ccc(/C=C/C(=O)N2CCOCC2)cc1)c1c(-c2ccc(O)cc2)sc2cc(O)ccc12 [Example 6, (E)-3-{4-[6-Hydroxy-2-(4 hydroxyphenyl)benzo[b]thiophene-3-carbonyl]-phenyl}-1-(morpholin-4-yl)prop-2-en-1-one] |  | 6.77 |  |
| O=C(c1ccc(/C=C/C(=O)N2CCCCC2)cc1)c1c(-c2ccc(O)cc2)sc2cc(O)ccc12 [Example 7, (E)-3-{4-[6-Hydroxy-2-(4-hydroxyphenyl)benzo[b]thiophene-3-carbonyl]phenyl}-1-(piperidinyl)prop-en-1-one] |  | 7.15 |  |
| C[C@]12CC[C@@H]3c4ccc(O)cc4CC[C@H]3[C@@H]1C[C@@H](O)[C@@H]2O [estriol] | 9.89 |  |  |
| C[C@]12CC[C@@H]3c4ccc(O)cc4CC[C@H]3[C@@H]1CCC2=O [estrone] | 9.44 |  |  |
| O=C(c1ccc(OCCN2CCCCC2)cc1)c1c(-c2ccc(O)cc2)sc2cc(O)ccc12 [raloxifene] |  |  | effect on bone loss [3, 5]: prevents bone loss; effect on serum cholesterol [3, 5]: reduces serum cholesterol; uterine hypertrophy [3, 5]: without causing uterine hypertrophy; effect on bone loss ([3]; species not given): reduce bone loss; uterine hypertrophy ([3]; species not given): without causing uterine hypertrophy |
| [F-].[Na+] [sodium fluoride] |  |  | bone growth quality [4]: the bone growth is irregular; fracture incidence [4]: fracture incidence does not appear to be significantly lowered; side-effects [4]: significant side-effects; bone density increase ([4]; up to the value): 8-10 % a year |
